These results are taken from the CATMoS acute toxicity set (Mansouri et al. 2021).

“And” between values parts separate entries of the source, which are not always exact repeats. Equal values may be shown once.

The nature of this series: rat acute oral toxicity. Particulars: in vivo.

For orientation: LD50 means the dose at which mortality reaches 50%. The low end stands for greater toxicity, the high end for lower toxicity. `CCCC1CO1` (centres undefined) yielded an LD50 of 1330 mg/kg.

As to `S=c1[nH]c(=S)[nH]c(=S)[nH]1`, the LD50 was 1180 mg/kg. This LD50 and that of the compound before are within 1.5-fold of each other.

The compound `CN(C)C(=O)Nc1ccc(Oc2ccc(Cl)cc2)cc1` showed an LD50 of 3000 mg/kg.

On to `CCC(N)CO` (centres undefined), for which the LD50 came out at 800 mg/kg.

Take `N#CCC(=O)O`: the LD50 stood at 1010 mg/kg.

The compound `O=C(CCl)c1ccccc1` had an LD50 of 50 mg/kg.

On to `O=C=Nc1ccc(Cl)c(Cl)c1`, for which the LD50 is 91 mg/kg.

`Nc1cccc([N+](=O)[O-])c1` registered an LD50 of 535 mg/kg. This LD50 is about 5.9-fold higher than that of the compound before.

For `C#CCOC(=O)[C@@H](C)Oc1ccc(Oc2ncc(Cl)cc2F)cc1`, the LD50 came out at 2230 mg/kg.

The compound `CC(O)CO` (centres undefined) showed an LD50 of 20000 mg/kg.

In turn, `CCC1(c2ccccc2)C(=O)NC(=O)NC1=O` showed an LD50 of 162 mg/kg.

`COc1ccc2c3c1O[C@H]1[C@@H](O)C=C[C@H]4[C@@H](C2)N(C)CC[C@@]341`: the LD50 turned out to be 427 mg/kg.

Compound `CCCCCOC(C)=O` yielded an LD50 of 6500 mg/kg. This LD50 lies about 15-fold higher than the previous one.

On to `CCCCN(CCCC)SN(C)C(=O)Oc1cccc2c1OC(C)(C)C2`, for which the 50% lethal dose (LD50) amounted to 51 mg/kg.

Compound `Cc1ccccc1S(N)(=O)=O` yielded an LD50 of 2400 mg/kg.

`CC(C)CO` gave an LD50 of 2460 mg/kg.

For the compound `CI`, the LD50 was found to be 76 mg/kg.

On to `O=C(O)COc1ccc(Cl)cc1Cl`, for which the median lethal dose (LD50) was 625 mg/kg and 552 mg/kg and 370 mg/kg.

In turn, `O=CCCCC=O` registered an LD50 of 134 mg/kg.

In the case of `Cc1ccc(N)cc1C`, the LD50 stood at 810 mg/kg. This LD50 lies about 6-fold higher than the previous one.

For `O=c1ccc(=O)[nH][nH]1`, the LD50 is 3800 mg/kg.

`CN(C)C(=O)Nc1ccccc1` registered an LD50 of 6400 mg/kg. This LD50 lies about 1.7-fold higher than the previous one.

In turn, `CC(C)=CC1C(C(=O)OCc2coc(Cc3ccccc3)c2)C1(C)C` (centres undefined) gave an LD50 of 1240 mg/kg.

For `CCN(CC)C(=S)S`, the LD50 was determined as 1500 mg/kg.

Compound `COP(=S)(OC)Oc1ccc(S(=O)(=O)N(C)C)cc1` returned an LD50 of 28 mg/kg.

`Clc1cccc(Cl)c1N=C1NCCN1` had an LD50 of 67.3 mg/kg.

Regarding `CC(O)COCC(C)O` (centres undefined), the LD50 was 14800 mg/kg.

For `CC(CC=O)CC(C)(C)C` (centres undefined), the LD50 came to 3240 mg/kg. This LD50 lies about 4.6-fold lower than the previous one.

Take `Nc1ccc(Cl)c(Cl)c1`: the LD50 stood at 530 mg/kg.

`O=C(OC1CCCCC1)c1ccccc1O` gave an LD50 of 3030 mg/kg.

`CCCCCCC(CO)CCCC` (centres undefined) showed an LD50 of 13000 mg/kg. This LD50 lies about 4.3-fold higher than the previous one.

Turning to `N#CCCC(Br)(C#N)CBr` (centres undefined), the LD50 amounted to 515 mg/kg.

As for `Cc1ccccc1NC(=N)Nc1ccccc1C`, the LD50 amounted to 70.7 mg/kg.

`CC(C)CC(=O)CC(C)C` returned an LD50 of 5260 mg/kg.

Compound `CC1(C)C(C(=O)OC(C#N)c2cccc(Oc3ccccc3)c2)C1(C)C` (centres undefined) yielded an LD50 of 66.7 mg/kg.

For the compound `O=C1NS(=O)(=O)c2ccccc21`, the LD50 is 8820 mg/kg.

In turn, `CC(C)(C)N` came in with an LD50 of 44 mg/kg.

On to `CCOCCOC(C)=O`, for which the LD50 was 2700 mg/kg. This LD50 lies about 61-fold higher than the previous one.

In the case of `CC(=O)CC(C)C`, the LD50 came out at 2080 mg/kg.

In turn, `CC(=O)C1=C(C)[C@@H]2C[C@@]3(C1)[C@H](C)CC[C@H]3C2(C)C` had an LD50 of 4500 mg/kg. This LD50 lies about 2.2-fold higher than the previous one.

Consider `O=C(O)/C=C/C(=O)O`, for which the LD50 came to 9300 mg/kg.

The compound `c1ccc(Oc2ccccc2)cc1` showed an LD50 of 2450 mg/kg.

`C=Cc1ccccc1` registered an LD50 of 1000 mg/kg.

In turn, `CCOP(=S)(OCC)Oc1cc(C)nc(N(CC)CC)n1` showed an LD50 of 140 mg/kg. Compared with the last compound, the LD50 is about 7.1-fold lower.

The compound `Cc1cccc(Nc2cc(Cl)nc(SCC(=O)O)n2)c1C` displayed an LD50 of 1050 mg/kg. Compared with the last compound, the LD50 is about 7.5-fold higher.

The compound `CC(C)(C)c1ccc(CSc2cnn(C(C)(C)C)c(=O)c2Cl)cc1` yielded an LD50 of 570 mg/kg.

`COCCOC(C)=O` returned an LD50 of 1250 mg/kg.

Regarding `ClCC(Cl)Cl`, the LD50 was 836 mg/kg.

Compound `CC(C)CC(C)O` (centres undefined) came in with an LD50 of 2590 mg/kg.

For the compound `CC(Cc1ccc(C(C)(C)C)cc1)CN1CCCCC1` (centres undefined), the LD50 stood at 1450 mg/kg.

`C/C=C/C=O` showed an LD50 of 165 mg/kg.

`Cc1ccccc1NC(=N)NC(=N)N` yielded an LD50 of 800 mg/kg.

As for `O=C1c2ccccc2C(=O)C1C(=O)C(c1ccccc1)c1ccc(Cl)cc1` (centres undefined), the LD50 was determined as 2.1 mg/kg.

With `O=C(O)c1ccc2cc(O)ccc2c1`, the LD50 amounted to 947 mg/kg.

The compound `ClC(Cl)c1ccccc1` yielded an LD50 of 3250 mg/kg.

`CCCCCCCCCCCCCC[N+](C)(C)CCCCCCCCCCCCCC` registered an LD50 of 930 mg/kg.

Turning to `C=C(C)[C@H]1Cc2c(ccc3c2O[C@@H]2COc4cc(OC)c(OC)cc4[C@@H]2C3=O)O1`, the LD50 was determined as 25 mg/kg.

In turn, `CCCCCc1cc(O)c2c(c1)OC(C)(C)[C@@H]1CCC(C)=C[C@@H]21` showed an LD50 of 666 mg/kg.

Regarding `CC(C)c1ccccc1`, the LD50 is 1400 mg/kg.

In the case of `C[N+](C)(C)CCCl`, the LD50 is 600 mg/kg. This LD50 is about 2.3-fold lower than that of the compound before.

For the compound `CCCC(C)C1(CC)C(=O)N=C(O)NC1=O` (centres undefined), the LD50 is 52 mg/kg and 118 mg/kg.

As for `CCCCCO`, the LD50 came to 2200 mg/kg.

Turning to `O=C(NC(=O)c1c(F)cccc1F)Nc1ccc(Cl)cc1`, the LD50 stood at 790 mg/kg.

In turn, `CC(C)N(C(=O)CO)c1ccc(F)cc1` came in with an LD50 of 474 mg/kg. This LD50 is about 1.7-fold lower than that of the compound before.

`COC(=O)c1ccccc1O` registered an LD50 of 887 mg/kg.

Compound `CC(O)C#N` (centres undefined) had an LD50 of 21 mg/kg.

`CCCCC(Cc1cc(C(C)(C)C)c(O)c(C(C)(C)C)c1)(C(=O)OC1CC(C)(C)N(C)C(C)(C)C1)C(=O)OC1CC(C)(C)N(C)C(C)(C)C1` had an LD50 of 1490 mg/kg.

Turning to `N#CN`, the LD50 was determined as 134 mg/kg.

In turn, `CCOC(=O)C(Cl)C(C)=O` (centres undefined) showed an LD50 of 233 mg/kg.
